Laboratory results taken from publication PMC8286840, “Identifying SARS-CoV-2 antiviral compounds by screening for small molecule inhibitors of Nsp3 papain-like protease” (Biochemical Journal, 2021).
Structures can show the parent of a compound that is named as a salt. Where two headings read alike, the source gives them in different places. Where a SMILES comes first, the peptide text is derived from it.

Tests used:
[1] = biological target: T1, SARS-CoV-2 PLpro (nsp3 1564–1878) (Severe acute respiratory syndrome coronavirus 2, UniProt P0DTD1); assay: biochemical; set-up: FRET-quenched peptide (Pro3) cleavage by PLpro, 10 min pre-incubation, slope over 20 min, normalised to no-compound control; conditions: low concentration screen, read-out: % of control remaining
[2] = biological target: T1, SARS-CoV-2 PLpro (nsp3 1564–1878); assay: biochemical; set-up: FRET-quenched peptide (Pro3) cleavage by PLpro, 10 min pre-incubation, slope over 20 min, normalised to no-compound control; conditions: high concentration screen, read-out: % of control remaining

For Nc1c2c(nc3ccccc13)CCCC2O (stereo not drawn) [Hydroxytacrine maleate], the remaining activity at 1.25 µM ([1]; Well no.=514) was 102% and the remaining activity at 3.75 µM ([2]; Well no.=514) was 101%.
For N#Cc1ccc2[nH]cc(CCCCN3CCN(c4ccc5oc(C(N)=O)cc5c4)CC3)c2c1 [Vilazodone], the remaining activity at 1.25 µM ([1]; Well no.=6477) was 90.6% and the remaining activity at 3.75 µM ([2]; Well no.=6477) was 89.2%.
Cn1c(=O)c2c(nc(/C=C/c3cccc(Cl)c3)n2C)n(C)c1=O [8-(3-Chlorostyryl)caffeine] was tested, and the remaining activity at 1.25 µM ([1]; Well no.=727) was 100% and the remaining activity at 3.75 µM ([2]; Well no.=727) was 97.2%.
Compound CCCCn1c(=O)c2c(ncn2CC(C)=O)n(CCCC)c1=O [Denbufylline] has a remaining activity at 1.25 µM ([1]; Well no.=1765) of 102% and a remaining activity at 3.75 µM ([2]; Well no.=1765) of 99.8%.
C[C@]12CCC3=C4CCC(=O)C=C4CC[C@H]3[C@@H]1CC[C@@]2(O)CC#N [Dienogest] was tested, and the remaining activity at 1.25 µM ([1]; Well no.=5145) was 102% and the remaining activity at 3.75 µM ([2]; Well no.=5145) was 102%.
Work on NC(=O)OCC(COC(N)=O)c1ccccc1 [Felbamate] yielded a remaining activity at 1.25 µM ([1]; Well no.=609) of 101%, a remaining activity at 1.25 µM ([1]; Well no.=1543) of 102% and a remaining activity at 3.75 µM ([2]; Well no.=609) of 104%. For the same compound, the remaining activity at 3.75 µM ([2]; Well no.=1543) was 101%.
Compound CN(C)CC/C=C1/c2ccccc2Sc2ccc(Cl)cc21 [Chlorprothixene] has a remaining activity at 1.25 µM ([1]; Well no.=5345) of 97.4%, a remaining activity at 1.25 µM ([1]; Well no.=6221) of 104% and a remaining activity at 3.75 µM ([2]; Well no.=5345) of 93.5%. The remaining activity at 3.75 µM ([2]; Well no.=6221) was 99.3%.
In the case of CC(=O)C1=C(C)N(c2cccc(C(F)(F)F)c2)C(=O)N[C@@H]1c1ccc(C#N)nc1 [BAY-678], the remaining activity at 1.25 µM ([1]; Well no.=7734) is reported as 97.9% and the remaining activity at 3.75 µM ([2]; Well no.=7734) is reported as 101%.
NCCCC[C@H](NC(=O)[C@H](Cc1c[nH]c2ccccc12)NC(=O)[C@@H](N)CCCCN)C(=O)O [H-Lys-Trp-Lys-OH] (H-Lys-Trp-Lys-OH) gave a remaining activity at 1.25 µM ([1]; Well no.=8180) of 103% and a remaining activity at 3.75 µM ([2]; Well no.=8180) of 103%.
In the case of Cc1cccc(C)c1NC1=NCCCS1 [Xylazine (hydrochloride)], the remaining activity at 1.25 µM ([1]; Well no.=6847) is reported as 101% and the remaining activity at 3.75 µM ([2]; Well no.=6847) is reported as 95.9%.
For CNC1(C)C2CCC(C2)C1(C)C (stereo not drawn) [Mecamylamine], the remaining activity at 1.25 µM ([1]; Well no.=1556) was 103% and the remaining activity at 3.75 µM ([2]; Well no.=1556) was 102%.
For C[C@@]1(O)[C@H](O)[C@@H](CO)O[C@H]1n1ccc(N)nc1=O [NM107], the remaining activity at 1.25 µM ([1]; Well no.=8897) was 99.5% and the remaining activity at 3.75 µM ([2]; Well no.=8897) was 100%.
Work on CCCN1C[C@H](CSC)C[C@@H]2c3cccc4[nH]cc(c34)C[C@H]21 [Pergolide mesylate] yielded a remaining activity at 1.25 µM ([1]; Well no.=1602) of 94.9% and a remaining activity at 3.75 µM ([2]; Well no.=1602) of 97.1%.
CN(CCOc1ccc(NS(C)(=O)=O)cc1)CCc1ccc(NS(C)(=O)=O)cc1 [Dofetilide] was tested, and the remaining activity at 1.25 µM ([1]; Well no.=1659) was 108% and the remaining activity at 3.75 µM ([2]; Well no.=1659) was 106%.
With CC[C@@H](CO)Nc1nc(NCc2ccc(-c3ccccn3)cc2)c2ncn(C(C)C)c2n1 [CR8, (S)-Isomer] the remaining activity at 1.25 µM ([1]; Well no.=2343) was 103% and the remaining activity at 3.75 µM ([2]; Well no.=2343) was 102%.
Compound CC(O)C(C)OC(=O)[C@@H]1C[C@@H]2c3cccc4c3c(cn4C(C)C)C[C@H]2N(C)C1 (stereo partly drawn) [LY-53,857 maleate] has a remaining activity at 1.25 µM ([1]; Well no.=772) of 99.8% and a remaining activity at 3.75 µM ([2]; Well no.=772) of 97.2%.
Work on O=C(O)c1ccc(-c2c[nH]c3ncc(-c4ccccc4)cc23)cc1C1CCCC1 [GSK 650394 - 2-Cyclopentyl-4-(5-phenyl-1H-pyrrolo[2,3-b]pyridin-3-yl-benzoic acid] yielded a remaining activity at 1.25 µM ([1]; Well no.=2676) of 96.9% and a remaining activity at 3.75 µM ([2]; Well no.=2676) of 99.7%.
Compound CN1CCc2ccccc2Cc2[nH]c3ccccc3c2CC1 [LE 300] has a remaining activity at 1.25 µM ([1]; Well no.=1027) of 101% and a remaining activity at 3.75 µM ([2]; Well no.=1027) of 101%.
COc1cc(O)c2c(c1)oc(=O)c1c3cc(O)c(O)cc3oc21 [Wedelolactone] gave a remaining activity at 1.25 µM ([1]; Well no.=3230) of 99.3% and a remaining activity at 3.75 µM ([2]; Well no.=3230) of 98%.
For CCCCCCCCCCC(=O)O [Undecanoic acid], the remaining activity at 1.25 µM ([1]; Well no.=4252) was 95.5% and the remaining activity at 3.75 µM ([2]; Well no.=4252) was 91.9%.
CC(=O)NCCOC(=O)[C@H](Oc1cccc(C(F)(F)F)c1)c1ccc(Cl)cc1 [2-(acetylamino)ethyl (2R)-(4-chlorophenyl)[3-(trifluoromethyl)phenoxy]ethanoate] showed a remaining activity at 1.25 µM ([1]; Well no.=6055) of 100% and a remaining activity at 3.75 µM ([2]; Well no.=6055) of 97.1%.
With Cn1cc(/C=C/C(=O)c2cccc(F)c2)cc1/C=C/C(=O)NO [MC1568] the remaining activity at 1.25 µM ([1]; Well no.=4905) was 102% and the remaining activity at 3.75 µM ([2]; Well no.=4905) was 101%.
